# Reference: PubChem BioAssay (NCI)
#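 Briefly, cells in 96-well plates were exposed to five compound concentrations for 48 h, and endpoints were estimated by linear interpolation. Definition used: TGI = concentration required for complete inhibition of growth.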
# Tests used:
# Test in all cases: NCI tumour cell line growth inhibition, 48 h
# CCRF-CEM leukemia = test system: CCRF-CEM leukemia
# A549 NSCLC = test system: A549 NSCLC
# BT-549 breast = test system: BT-549 breast
# SF-268 CNS = test system: SF-268 CNS
# OVCAR-5 ovarian = test system: OVCAR-5 ovarian
# UO-31 renal = test system: UO-31 renal
# MDA-N = test system: MDA-N
# 786-0 renal = test system: 786-0 renal
# LOX IMVI melanoma = test system: LOX IMVI melanoma
# HL-60(TB) leukemia = test system: HL-60(TB) leukemia
SMILES,TGI (CCRF-CEM leukemia),TGI (A549 NSCLC),TGI (BT-549 breast),TGI (SF-268 CNS),TGI (OVCAR-5 ovarian),TGI (UO-31 renal),TGI (MDA-N),TGI (786-0 renal),TGI (LOX IMVI melanoma),TGI (HL-60(TB) leukemia)
CCCCC(=O)Nc1ccc2cc(C(=O)OC)c(=O)[nH]c2n1,> 100 µM,> 100 µM,> 100 µM,> 100 µM,> 100 µM,> 100 µM,> 100 µM,> 100 µM,> 100 µM,
Brc1ccc2c(c1)[C@H]1CCc3c([nH]c4ccccc34)[C@H]1N2,21.6 µM,47.4 µM,34.7 µM,32.4 µM,27 µM,26.9 µM,28.7 µM,,19.1 µM,
O=c1[nH]nc(Nc2ccccc2)c2nnn(Cc3ccccc3)c12,> 100 µM,> 100 µM,> 100 µM,> 100 µM,> 100 µM,> 100 µM,> 100 µM,> 100 µM,> 100 µM,> 100 µM
Clc1ccc2nc3c(c(-c4ccccc4)nn3-c3ccccc3)c(-c3ccccc3)c2c1,> 100 µM,> 100 µM,> 100 µM,> 100 µM,> 100 µM,> 100 µM,> 100 µM,> 100 µM,> 100 µM,> 100 µM
CCOC(=O)C(NC(=O)Nc1ccccc1)(Nc1cccc(Cl)c1)C(F)(F)F (configuration not stated),> 100 µM,> 100 µM,> 100 µM,> 100 µM,> 100 µM,> 100 µM,> 100 µM,> 100 µM,> 100 µM,> 100 µM
CC12CCC3=C(CSC4=C3CSc3ccccc34)C1=CCCC2=O (configuration not stated),> 100 µM,> 100 µM,,> 100 µM,> 100 µM,> 100 µM,,,> 100 µM,> 100 µM
Cc1cc2nc(N)n[n+]([O-])c2cc1C,> 100 µM,> 100 µM,> 100 µM,> 100 µM,> 100 µM,> 100 µM,> 100 µM,> 100 µM,> 100 µM,> 100 µM
c1ccc2c3c(c(N4CCNCC4)nc2c1)CCCC3,31.4 µM,30.8 µM,26.9 µM,33.8 µM,26.9 µM,16.3 µM,28.3 µM,27.7 µM,27.2 µM,24.3 µM
Oc1cccc(-c2cc(=S)ss2)c1,,44.5 µM,35.8 µM,32.6 µM,30.8 µM,28.5 µM,,36.2 µM,33.3 µM,48.5 µM
O=C1N2CCN=C2c2ccccc2C1(O)c1ccccc1 (configuration not stated),> 100 µM,> 100 µM,> 100 µM,> 100 µM,> 100 µM,> 100 µM,> 100 µM,> 100 µM,> 100 µM,> 100 µM
COc1c2c(cc3oc(=O)ccc13)OC(C)(C)C=C2,,> 125 µM,70.2 µM,> 125 µM,,73.6 µM,91.7 µM,63.8 µM,41.8 µM,45.2 µM
O=C(CSCC(=O)N/N=C/c1ccc(F)cc1)N/N=C/c1ccc(F)cc1,,> 100 µM,,> 100 µM,> 100 µM,> 100 µM,,> 100 µM,,> 100 µM
CCOC(=O)Cn1c(=O)c2cc(C)cc3c(Cl)nc4c(OC)c(OC)cc1c4c32,> 100 µM,> 100 µM,> 100 µM,> 100 µM,> 100 µM,> 100 µM,> 100 µM,> 100 µM,> 100 µM,> 100 µM
COc1cc(C(C)(C)C)c(OC(=O)/C=C/C(=O)O/C=C/[N+](=O)[O-])c(C(C)(C)C)c1,37.3 µM,55 µM,,75.7 µM,> 100 µM,76.9 µM,> 100 µM,> 100 µM,75.6 µM,4.29 µM
c1ccc2c(c1)N=c1ccccc1=P21c2ccccc2Nc2ccccc21,0.737 µM,15.3 µM,2.63 µM,10.2 µM,3.81 µM,27 µM,4.07 µM,11.7 µM,4.96 µM,
COc1cc(CNc2nc3cc(C(F)(F)F)ccc3nc2C(=O)O)cc(OC)c1OC,,61.5 µM,> 100 µM,> 100 µM,> 100 µM,39.4 µM,45.2 µM,59.1 µM,> 100 µM,15.4 µM
COC(=O)[C@@]12CC3CN(Cc4c1[nH]c1ccccc41)C2CC3=O,> 100 µM,> 100 µM,> 100 µM,> 100 µM,> 100 µM,,> 100 µM,> 100 µM,> 100 µM,> 100 µM
O=C(NC12CC3CC(CC(C3)C1)C2)n1cnc2cncnc21,> 100 µM,> 100 µM,> 100 µM,> 100 µM,> 100 µM,> 100 µM,> 100 µM,> 100 µM,92 µM,> 100 µM
CC1CN=C(c2ccc3c(c2)Cc2cc(C4=NCC(C)N4)ccc2-3)N1 (configuration not stated),> 100 µM,> 100 µM,> 100 µM,77.7 µM,> 100 µM,> 100 µM,> 100 µM,> 100 µM,> 100 µM,
O=C(O)CC(Cc1ccccc1)C(=O)O (configuration not stated),> 100 µM,> 100 µM,> 100 µM,> 100 µM,> 100 µM,> 100 µM,> 100 µM,> 100 µM,> 100 µM,
CCCc1c(OC)c(O)c2c(=O)cc(OC)c3c4c(OC)cc(=O)c5c(O)c(OC)c(CCC)c(c1c23)c54,50.1 µM,25.8 µM,19.8 µM,19.6 µM,51.1 µM,11 µM,22.7 µM,13.5 µM,4.91 µM,
C(=C/c1ccc2nc(-c3ccc(/C=C/C=N/NC4=NCCCN4)cc3)cn2c1)/C=N/NC1=NCCCN1,> 100 µM,22 µM,> 100 µM,54.7 µM,> 100 µM,> 100 µM,> 100 µM,> 100 µM,,
